Results as given in publication PMC8758714, “Effective prediction of biosynthetic pathway genes involved in bioactive polyphyllins in Paris polyphylla” (Communications Biology, 2022).

Tested on: T1, PpUGT73CR1
T1 construct: gene UGT73CR1; tag removal not mentioned
Experiment: HPLC quantification of product
Assay type: biochemical, Paris polyphylla var. yunnanensis
Details: 5 mM UDP-glucose, 50 mM Tris-HCl pH 8.0, 37 °C, 30 min, 20-400 µM acceptor
Text: HPLC quantification of product on PpUGT73CR1

C[C@@H]1CC[C@@]2(OC1)O[C@H]1C[C@H]3[C@@H]4CC=C5C[C@@H](O)CC[C@]5(C)[C@H]4CC[C@]3(C)[C@H]1[C@@H]2C [diosgenin]
Km (product trillin): 53.7 ± 9.37 µM

C[C@@H]1CC[C@@]2(OC1)O[C@H]1C[C@H]3[C@@H]4CC=C5C[C@@H](O)CC[C@]5(C)[C@H]4CC[C@]3(C)[C@@]1(O)[C@@H]2C [pennogenin]
Km (product floribundasaponin A): 73.4 ± 8.16 µM
